The source of these data is US20100196907A1, “MARKERS TO PREDICT AND MONITOR RESPONSE TO AURORA KINASE B INHIBITOR THERAPY” (ABBOTT LABORATORIES, priority 2009, published 2010).

One may read the IC50 as the concentration at which inhibition is half-maximal. Read a low IC50 as greater potency.

The test system of test [1] is SW620 colon carcinoma cells. Description: selection of SW620 cells in 1 μM AZD1152 HQPA. The class given is cell-based, human. The following applies: after 5 passages. On the procedure:
All cells were maintained at 37° C. in 5% CO2. […] Less than 0.01% of cells survived this treatment after 5 passages (data not shown). […] In the drug-resistant SW620 derivative (hereafter referred to as SW620^ABCB1/3), ABCB1, which encodes MDR1, was the most highly overexpressed gene on the array, and was identified by two distinct probe sets (FIG. 1A, inset). […] Among the gene set that encodes known small molecule transporters, ABCB1 and ABCB4 are the only two that show highly differential expression (FIG. 1A). The apparent co-upregulation of ABCB1 and ABCB4 was curious given that these genes lie juxtaposed within a common genomic locus on the long arm of chromosome 7 (7q21.1).

The next test deals with HCT-15. Description: colony formation, HCT-15. The following applies: Homo sapiens. In kind it is cell-based, human.

As for `CCN(CCO)CCCOc1ccc2c(Nc3cc(CC(=O)Nc4cccc(F)c4)[nH]n3)ncnc2c1` [AZD1152 HQPA], in test [1], the “cells that survived treatment” value was “Less than 0.01%”. In addition, the midpoint of inhibition in the test on HCT-15, the IC50, lay at 1400 nM.
